Source: US10143666B2, “Small molecule inhibitors targeting CAG-repeat RNA toxicity in polyglutamine diseases” (The Chinese University of Hong Kong, priority 2015, dated 2018)

What was measured:
r(CAG)7 RNA = assay: Isothermal titration calorimetry (ITC) binding assay; conditions: 25° C., DB213 800 μM titrated to r(CAG)7 RNA 40 μM, one binding site model
Method: It was next investigated that whether DB213 would interact physically with CAG-repeat RNA and sequestrate the toxic RNA species from their pathogenic pathway. Isothermal titration calorimetry (ITC)^17 was adopted to identify the RNA-binding property of DB213.
Experiments were carried out using a MicroCal iTC200 isothermal titration calorimeter (GE Healthcare) at 25° C. Data were analyzed using the Origin® scientific plotting software version 7 (Microcal Software Inc.). DB213 (800 μM) was titrated to synthesized r(CAG)7 RNA (40 μM). The thermal titration data were fitted to the ‘one binding site model’ to determine the dissociation constant (KD).

CUG-repeat RNA = conditions: reported previously; cited from earlier work
α-synuclein fly = assay: Neurodegeneration in α-synuclein fly (Parkinson's disease model); assay type: in vivo, Drosophila
Method: Other disease fly models, including α-synuclein (Parkinson's disease)^13, CTG480 (Myotonic dystrophy 1)^14 and CGG90 (Fragile X syndrome)^15 were employed to address the specificity of DB213 on trinucleotide repeat expansion RNA toxicity.
Flies were raised at 21.5° C. on cornmeal medium supplemented with dry yeast. Pseudopupil assay was performed on 12 day-old adult flies as mentioned previously^18. Images were captured by SPOT Insight CCD camera controlled by the SPOT Advanced software (Diagnostic instruments Inc.). External eye assay was performed on 12 day-old adult flies by Olympus SZX-12 stereomicroscope. Eye images were captured using a SPOT Insight CCD camera (Diagnostic instruments Inc.).

[1] = tested on: pre-45s rRNA in EGFPCAG27 RNA expressing cell; assay: pre-45s rRNA real-time PCR, EGFPCAG27 RNA expressing cells; assay type: cell-based, human
Method: (§1) Nucleolar stress and a chain of downstream events were triggered and ultimately led to apoptosis^7.
(§2) RNA was extracted from cells by Trizol reagent (Life Technologies), and 1 μg of purified RNA was then used for reverse-transcription using the ImPromII™ Reverse Transcription System (Promega). Random hexamer (Roche) was used as primers in reverse transcription. Taqman gene expression assays were performed on an ABI 7500 Real-time PCR system and data were analyzed as previously described^7. The following probes were used: pre-45s rRNA (Assay ID: AILJIZM) and actin (Assay ID: Hs99999903_m1).

[2] = tested on: pre-45s rRNA in EGFPCAG78 RNA expressing SK-N-MC cells; assay: pre-45s rRNA real-time PCR, EGFPCAG78 RNA expressing SK-N-MC cells; assay type: cell-based, human
Method: as §1, §2

R6/2 Huntington's mice = assay: Open field test in R6/2 mice; assay type: in vivo
Method: The body weights were measured daily.
Open field test was performed at baseline, and on day 7. The mice were brought to the experimental room for at least 1 h acclimation to the experimental room conditions prior to testing. Activity chambers (Med Associates Inc, St Albans, Vt.; 27×27×20.3 cm) were equipped with IR beams. Mice were placed in the center of the chamber and their behavior was recorded for 30 min in 5-minute bins. Quantitative analysis was performed on the following five dependent measures: total locomotion, locomotion in the center of the open field, rearing rate in the center, total rearing frequency and velocity. Animals were tested at low-stress conditions where the light was lowered to approximately 10-30 lux of red light.

For `CN(C)CCCNC(=N)c1ccc(C(=N)NCCCN(C)C)cc1.Cl.Cl.Cl.Cl` [DB213], the Kd (r(CAG)7 RNA) is given as 1530 ± 250 nM, the “Binding to CUG repeats / CUG-repeat RNA” value (CUG-repeat RNA) is given as “did not bind to CUG repeats” and the Suppression of neurodegeneration (α-synuclein fly) is given as “did not suppress the neurodegeneration”. The “pre-45s rRNA transcription level” value [1] was “did not alter the pre-45s rRNA transcription level”, the “pre-45s rRNA transcription level” value [2] was “could restore the pre-45s rRNA transcription level” and the “Movement activity in open field test” value (R6/2 Huntington's mice; day 7 post-dosing) was “no effect on movement activity”. The “Open field distance, rearings, distance in center, rearings in center or velocity, differences between treatment groups” value (R6/2 Huntington's mice; i.n. dosing, day 7) was “no differences” and the “Open field distance, rearings, distance in center, rearings in center or velocity, differences between treatment groups” value (R6/2 Huntington's mice; i.v. dosing, baseline or day 7) was “no differences”.
